Reference: patent EP4678638A1, “NEW E3 UBIQUITIN LIGASE LIGAND, PROTEIN DEGRADATION AGENT AND USE THEREOF” (priority 2023, dated 2024)

Columns and labels:
MCF7 = assay: CCK-8 proliferation, MCF7 (MCF-7); type: cell-based; conditions: Homo sapiens, MCF7; CCK-8; read-out: Inhibitory activity (IC50) on tumor cell proliferation, MCF7
Description: (§1) The tumor cells used herein were cultured in a cell culture medium listed in table A1 at 37°C in an incubator with 5% CO2. Prior to experimentation, all cell lines used were correctly identified by STR profiling, and tested negative for mycoplasma contamination using a mycoplasma detection kit through routine screenings. Table A1. Tumor cells and cell culture medium used in the present disclosure
(§2) IC50 values of the compounds of the present disclosure (including the compounds in Table 1, and compounds of examples) were measured using the Meilun Cell Counting Kit-8 kit from Dalian Meilun Biotech Co., Ltd. Assay details are as follows: tumor cells were seeded in a 96-well plate at a density listed in Table A2. After 24h, 100 µL of the inoculated cells were treated with 0.5µL of the compounds of the present disclosure (including the compounds in Tables 1 and 2, and compounds of examples) at 10 different successively decreasing concentrations (starting at the highest concentration of 10µM; 5-fold serial dilutions). After the cells were treated with the compounds of the present disclosure for a period of time, the cell viability detection reagent was added to the culture medium for cell viability assessment according to the instructions provided with the CCK-8 kit. […] The growth inhibition of the compounds of the present disclosure on cells was plotted by Prism Graphpad software, and the IC50 values of the compounds of the present disclosure were calculated therefrom. […] Seeding protocol and treatment time for tumor cells

SR = assay: CCK-8 proliferation, SR; type: cell-based, Human; conditions: Homo sapiens; Table B6, compounds designed based on the ALK inhibitors; SR cells; read-out: Inhibitory activity (IC50, nM) on tumor cell proliferation, SR
Description: as §1, §2

H2228 = assay: CCK-8 proliferation, NCI-H2228 (H2228); type: cell-based; conditions: Homo sapiens, NCI-H2228; Table B6, compounds designed based on the ALK inhibitors; H2228 cells; read-out: Inhibitory activity (IC50, nM) on tumor cell proliferation, H2228
Description: as §1, §2

H1975 = assay: CCK-8 proliferation, NCI-H1975 (H1975); type: cell-based, Human; conditions: Homo sapiens, NCI-H1975; CCK-8; 96 hours; read-out: Inhibitory activity (IC50) on tumor cell proliferation, H1975
Description: as §1, §2

SMILES | IC50 (SR) [nM] | IC50 (H2228) [nM] | IC50 (H1975) [nM] | also measured
CC(=O)c1c(C)c2cnc(Nc3ccc(N4CCN(Cc5cccc(N6CCC(=O)NC6=O)c5)CC4)cn3)nc2n(C2CCCC2)c1=O [GT-06577, 1-(3-((4-(6-((6-acetyl-8-cyclopentyl-5-methyl-7-oxo-7,8-dihydropyrido[2,3-d]pyrimidin-2-yl)amino)pyridin-3-yl)piperazin-1-yl)methyl)phenyl)dihydropyr imidine-2,4(1H,3H)-dione] | – | – | – | IC50 (MCF7): 100 to 500 nM
CCc1cc2c(cc1N1CCC(N3CCN(Cc4cccc(NC5CCC(=O)NC5=O)c4)CC3)CC1)C(C)(C)c1[nH]c3cc(C#N)ccc3c1C2=O (centres unmarked) [GT-07313, 8-(4-(4-(3-((2,6-dioxopiperidin-3-yl)amino)benzyl)piperazin-1-yl)piperidin-1-yl)-9-ethyl-6,6-dimethyl-11-oxo-6,11-dihydro-5H-benzo[b]carbazole-3-carbonitrile] | 1 to 10 | 100 to 500 | – | –
Cc1cc(Nc2ncc(Cl)c(Nc3ccccc3S(=O)(=O)C(C)C)n2)c(OC(C)C)cc1C1CCN(Cc2ccc(C3CCC(=O)NC3=O)c(F)c2)CC1 (centres unmarked) [GT-07365, 3-(4-((4-(4-((5-chloro-4-((2-(isopropylsulfonyl)phenyl)amino)pyrimidin-2-yl)amino)-5-isopropoxy-2-methylphenyl)piperidin-1-yl)methyl)-2-fluorophenyl)piperidine-2,6-dione] | 100 to 500 | 100 to 500 | – | –
O=C1CCC(c2cnc(F)c(CN3CCN(c4ccc(-c5cc(F)c6c(c5)C(=O)N(C(C(=O)Nc5nccs5)c5ncn7c5CCC7)C6)cc4)CC3)c2)C(=O)N1 (centres unmarked) [GT-07490, 2-(6,7-dihydro-5H-pyrrolo[1,2-c]imidazol-1-yl)-2-(6-(4-(4-((5-(2,6-dioxopiperidin-3-yl)-2-fluoropyridin-3-yl)methyl)piperazin-1-yl)phenyl)-4-fluoro-1-oxoisoindolin-2-yl)-N-(thiazol-2-yl)acetamide] | – | – | 1 to 10 | –
CN(Cc1cc(C2CCC(=O)NC2=O)cnc1F)C1CCN(c2ccc(-c3cc(F)c4c(c3)C(=O)N(C(C(=O)Nc3nccs3)c3ncn5c3CCC5)C4)cc2)CC1 (centres unmarked) [GT-07560, 2-(6,7-dihydro-5H-pyrrolo[1,2-c]imidazol-1-yl)-2-(6-(4-(4-(((5-(2,6-dioxopiperidin-3-yl)-2-fluoropyridin-3-yl)methyl)(methyl)amino)piperidin-1-yl)phenyl)-4-fluoro-1-oxoisoindolin-2-yl)-N-(thiazol-2-yl)acetamide] | – | – | 1 to 10 | –
CN(Cc1cccnc1NC1CCC(=O)NC1=O)C1CCN(c2ccc(-c3cc(F)c4c(c3)C(=O)N(C(C(=O)Nc3nccs3)c3ncn5c3CCC5)C4)cc2)CC1 (centres unmarked) [GT-07561, 2-(6,7-dihydro-5H-pyrrolo[1,2-c]imidazol-1-yl)-2-(6-(4-(4-(((2-((2,6-dioxopiperidin-3-yl)amino)pyridin-3-yl)methyl)(methyl)amino)piperidin-1-yl)phenyl)-4-fluoro-1-oxoisoindolin-2-yl)-N-(thiazol-2-yl)acetamide] | – | – | 1 to 10 | –
O=C1CCC(c2cnc(F)c(CN3C[C@H]4C[C@@H]3CN4c3ccc(-c4cc(F)c5c(c4)C(=O)N(C(C(=O)Nc4nccs4)c4ncn6c4CCC6)C5)cc3)c2)C(=O)N1 (stereo partly drawn) [GT-07562, 2-(6,7-dihydro-5H-pyrrolo[1,2-c]imidazol-1-yl)-2-(6-(4-((1R,4R)-5-((5-(2,6-dioxopiperidin-3-yl)-2-fluoropyridin-3-yl)methyl)-2,5-diazabicyclo[2.2.1]heptan-2-yl)phenyl)-4-fluoro-1-oxoisoindolin-2-yl)-N-(thiazol-2-yl)acetamide] | – | – | 10 to 50 | –
Cc1cc(Nc2ncc(Cl)c(Nc3ccccc3S(=O)(=O)C(C)C)n2)c(OC(C)C)cc1C1CCN(Cc2cc(C3CCC(=O)NC3=O)cnc2F)CC1 (centres unmarked) [GT-07598, 3-(5-((4-(4-((5-chloro-4-((2-(isopropylsulfonyl)phenyl)amino)pyrimidin-2-yl)amino)-5-isopropoxy-2-methylphenyl)piperidin-1-yl)methyl)-6-fluoropyridin-3-yl)piperidine-2,6-dione] | 100 to 500 | 100 to 500 | – | –
